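Five concentrations, 48 hours, 96-well plates. GI50 = concentration required for 50% inhibition of growth. TGI is the concentration that stops growth completely.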
Columns and labels:
Experiment in all cases: NCI tumour cell line growth inhibition, 48 h
A549 NSCLC = test system: A549 NSCLC
SF-539 CNS = test system: SF-539 CNS
OVCAR-3 ovarian = test system: OVCAR-3 ovarian
SR leukemia = test system: SR leukemia
ACHN renal = test system: ACHN renal
SK-MEL-28 melanoma = test system: SK-MEL-28 melanoma
NCI-H23 lung = test system: NCI-H23 lung
HL-60(TB) leukemia = test system: HL-60(TB) leukemia
SK-MEL-5 melanoma = test system: SK-MEL-5 melanoma
MCF7 breast = test system: MCF7 breast

SMILES | TGI (A549 NSCLC) [µM] | TGI (SF-539 CNS) [µM] | TGI (OVCAR-3 ovarian) [µM] | TGI (SR leukemia) [µM] | TGI (ACHN renal) [µM] | TGI (SK-MEL-28 melanoma) [µM] | TGI (NCI-H23 lung) [µM] | TGI (HL-60(TB) leukemia) [µM] | TGI (SK-MEL-5 melanoma) [µM] | TGI (MCF7 breast) [µM] | GI50 (MCF7 breast) [µM] | GI50 (A549 NSCLC) [µM] | GI50 (SR leukemia) [µM] | GI50 (ACHN renal) [µM] | GI50 (SK-MEL-28 melanoma) [µM] | GI50 (NCI-H23 lung) [µM] | GI50 (HL-60(TB) leukemia) [µM] | GI50 (SK-MEL-5 melanoma) [µM] | GI50 (SF-539 CNS) [µM] | GI50 (OVCAR-3 ovarian) [µM]
CC1=C2C(=CC(C)(C)C2O)C(=O)C(C)(O)C12CC2 (configuration not stated) | 0.277 | 0.0604 | 0.0494 | 0.128 | 0.0373 | 0.0865 | 0.0234 | 0.0149 | 0.0219 | – | – | – | – | – | – | – | – | – | – | –
O=CN/C=C/c1ccc(O)c(O)c1 | > 100 | > 100 | > 100 | – | > 100 | > 100 | > 100 | > 100 | – | – | – | – | – | – | – | – | – | – | – | –
CCOC(=O)NC(=O)c1cn(CCCCCCOC(=O)NCCCCCCNC(=O)OCCCCCCn2cc(C(=O)NC(=O)OCC)c(=O)[nH]c2=O)c(=O)[nH]c1=O | > 100 | > 100 | > 100 | – | > 100 | > 100 | – | > 100 | > 100 | – | – | – | – | – | – | – | – | – | – | –
N#CC(c1nc2ccccc2nc1Cl)S(=O)(=O)c1ccccc1 (configuration not stated) | > 100 | > 100 | > 100 | > 100 | > 100 | > 100 | > 100 | > 100 | > 100 | – | – | – | – | – | – | – | – | – | – | –
C/C=C(/COC(C)=O)C(=O)OC1C=C(C=O)C(C)(C)C=C1C (configuration not stated) | > 100 | > 100 | – | > 100 | > 100 | > 100 | > 100 | > 100 | > 100 | > 100 | – | – | – | – | – | – | – | – | – | –
Cc1ccc(N2C(=O)C3C=CC(n4[nH]c(=O)n(Cc5ccccc5)c4=O)CC3C2=O)cc1 (configuration not stated) | > 100 | > 100 | > 100 | > 100 | > 100 | > 100 | > 100 | > 100 | > 100 | – | – | – | – | – | – | – | – | – | – | –
COC(=O)c1cc(Cl)ccc1NC(=O)c1ccc([N+](=O)[O-])cc1 | 58.2 | 49.1 | 31.4 | – | 26.5 | > 100 | 50.3 | > 100 | > 100 | – | – | – | – | – | – | – | – | – | – | –
COC(=O)CCC(NC(=S)N/N=C/c1ccco1)C(=O)OC (configuration not stated) | > 100 | > 100 | > 100 | > 100 | > 100 | > 100 | > 100 | > 100 | > 100 | – | – | – | – | – | – | – | – | – | – | –
NC(=O)c1c(NC(=O)c2ccc3c(c2)OCO3)sc2c1CCC(=O)C2 | > 100 | – | – | > 100 | 5.11 | > 100 | 5.64 | 8.28 | 3.17 | > 100 | 1.96 | 3.44 | 0.372 | 1.51 | 3 | 1.32 | 0.554 | 1.77 | – | –
CC(C)c1cccc2sc(NC(=O)C(=O)C(C#N)c3cccc4ccccc34)nc12 (configuration not stated) | > 100 | > 100 | > 100 | > 100 | > 100 | > 100 | > 100 | > 100 | > 100 | – | – | – | – | – | – | – | – | – | – | –
O=C(Nc1cccc(NC(=O)Nc2cc(C(F)(F)F)ccc2Cl)c1)Nc1cc(C(F)(F)F)ccc1Cl | 15.8 | 32 | – | – | 11.2 | 15.4 | 15.9 | – | 65.6 | 32.9 | 0.516 | 1.95 | – | 0.983 | 2.84 | 2.61 | – | 3.2 | 6.15 | –
C/C(CC(=O)Nc1ccc(Cl)cc1)=N\NC(N)=S | > 100 | > 100 | > 100 | – | > 100 | > 100 | > 100 | > 100 | > 100 | – | – | – | – | – | – | – | – | – | – | –
COC(=O)C1=CC2C(=O)OC1CC2C#N (configuration not stated) | > 100 | > 100 | > 100 | > 100 | > 100 | > 100 | > 100 | > 100 | > 100 | – | – | – | – | – | – | – | – | – | – | –
COc1ccc(/C=C2\S/C(=N/Nc3nc(-c4ccccc4)cs3)NC2=O)cc1OC | > 100 | 71.4 | 55.8 | – | > 100 | 69.9 | 69.4 | 22 | 31.2 | > 100 | – | – | – | – | – | – | – | – | – | –
COc1ccc2c(c1)C(=O)c1c-2c(N(C)C)nc2ccccc12 | > 100 | > 100 | – | – | > 100 | > 100 | > 100 | > 100 | > 100 | > 100 | > 100 | > 100 | – | > 100 | > 100 | > 100 | > 100 | > 100 | > 100 | –
CC1=C(CO)C(=O)O[C@@H]([C@@H](C)[C@H]2CC[C@H]3[C@@H]4C[C@@H](O)[C@@]5(O)CC=CC(=O)[C@]5(C)[C@H]4CC[C@]23C)C1 | > 100 | > 100 | > 100 | – | 75.2 | > 100 | 49.4 | > 100 | > 100 | > 100 | – | – | – | – | – | – | – | – | – | –
COc1ccc(C2=NN(c3ccccc3)C[N+](c3ccc(OC)cc3)=N2)cc1 | > 100 | – | 46 | > 100 | > 100 | > 100 | 93.1 | > 100 | 29.8 | – | – | – | – | – | – | – | – | – | – | –
CC(=O)C1C(=O)C(=O)N(c2ccccc2C(C)C)C1=O (configuration not stated) | > 100 | > 100 | > 100 | – | > 100 | > 100 | > 100 | > 100 | > 100 | – | – | – | – | – | – | – | – | – | – | –
COc1ccc(C2SC(C)C(=O)N2NC(=O)C(O)c2ccccc2)cc1OC (configuration not stated) | > 100 | > 100 | > 100 | > 100 | > 100 | > 100 | – | > 100 | > 100 | > 100 | > 100 | > 100 | > 100 | > 100 | > 100 | – | > 100 | > 100 | > 100 | > 100
Cc1ccc(CNc2c3ccccc3nc3cc(NC(=O)CCN4CCCC4)ccc23)cc1 | – | 1.9 | 2.11 | 1.82 | 1.74 | 3.09 | 1.81 | – | 2.89 | 1.77 | 0.453 | – | 0.301 | 0.541 | 1.66 | 0.518 | – | 1.54 | 0.618 | 0.768

Reference: PubChem BioAssay (NCI)
